Test results published in US20170096504A1, “METHOD FOR PRODUCING FLUOROPOLYMER AQUEOUS DISPERSION LIQUID” (DAIKIN INDUSTRIES, LTD., priority 2014, published 2017).

What was measured:
[1] = Critical micelle concentration by surface tension measurement; type: physicochemical
Excerpt: The critical micelle concentration may be determined by measuring the surface tension. The surface tension may be measured using a surface tensiometer CBVP-A3 (Kyowa Interface Science Co., Ltd.), for example.
The critical micelle concentration may be determined in accordance with “Environmental Science & Technology (2011)”, 45(19), 8120-8128 and the literature cited therein.

[2] = Log POW (1-octanol/water partition coefficient) by HPLC calibration
Method: Log POW is a 1-octanol/water partition coefficient which is represented by Log P (wherein P is the ratio between the concentration of the fluorosurfactant in octanol and that in water in a phase-separated octanol/water (1:1) liquid mixture containing the fluorosurfactant).
Log POW is determined as follows. Specifically, HPLC is performed on standard substances (heptanoic acid, octanoic acid, nonanoic acid, and decanoic acid) each having a known octanol/water partition coefficient using TOSOH ODS-120T (φ4.6 mm×250 mm) as a column and acetonitrile/0.6 mass % HClO4 aqueous solution (=1/1 (vol/vol %)) as an eluent at a flow rate of 1.0 ml/min, a sample amount of 300 μL, and a column temperature of 40° C.; with a detection light of UV 210 nm. For each standard substance, a calibration curve is drawn with respect to the elution time and the known octanol/water partition coefficient. Based on this calibration curve, Log POW is calculated from the elution time of the sample liquid in HPLC.

| SMILES | critical micelle concentration [1] | chromatographic logP [2] |
| --- | --- | --- |
| O=S(=O)(O)CCC(F)(F)C(F)(F)C(F)(F)C(F)(F)C(F)(F)C(F)(F)F [C6F13(CH2)2SO3H] | 1 g/L |  |
| N.O=C(O)C(F)(OC(F)(F)C(F)(OC(F)(F)F)C(F)(F)F)C(F)(F)F (centres unmarked) [CF3OCF(CF3)CF2OCF(CF3)COONH4, ammonium 2,3,3,3-tetrafluoro-2-[1,1,2,3,3,3-hexafluoro-2-(trifluoromethoxy)propoxy]-propanoate] | 22 g/L | 3.4 |
| N.O=C(O)C(F)(F)C(F)(F)C(F)(F)C(F)(F)C(F)(F)F [CF3(CF2)4COONH4, ammonium perfluorohexanoate] | 56 g/L | 2.4 |
| N.O=C(O)C(F)(OC(F)(F)C(F)(F)C(F)(F)F)C(F)(F)F (centres unmarked) [C3F7OCF(CF3)COONH4] | 48 g/L |  |
| N.O=C(O)C(F)(F)C(F)(F)C(F)(F)C(F)(F)F [CF3(CF2)3COONH4, ammonium perfluoropentanoate] | 82 g/L | 2 |
